Target: P. falciparum apicoplast DNA polymerase (Pf-apPOL) (Plasmodium falciparum, UniProt Q8ILY1)
Assay: Fluorescence-based high-throughput DNA polymerase assay (molecular beacon), primary screen and dose-response;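 as to % inhibition ApPOL 90': test concentration in µM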;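 as to % inhibition apPOL 180': test concentration in µM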
Assay type: biochemical
Method in brief: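 Single-point screening used 10 µM compound with 20 nM polymerase, 20 nM hairpin substrate and 6 µM dNTPs for 90 min at 25 °C. Confirmatory titrations (2.5–80 µM) followed fluorescence at three times, and IC50 was derived from a fit including a cooperativity term n.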

[1] = DRC-1; concentration 80 (unit not given); 10'
[2] = primary screen value of the 186 hits; unit not given; 90 min, 10 µM
[3] = primary screen value; head prints only 'DNA Pol'; 90 min, 10 µM

Chain of P. falciparum apicoplast DNA polymerase (Pf-apPOL) (Q8ILY1 entry or part of it): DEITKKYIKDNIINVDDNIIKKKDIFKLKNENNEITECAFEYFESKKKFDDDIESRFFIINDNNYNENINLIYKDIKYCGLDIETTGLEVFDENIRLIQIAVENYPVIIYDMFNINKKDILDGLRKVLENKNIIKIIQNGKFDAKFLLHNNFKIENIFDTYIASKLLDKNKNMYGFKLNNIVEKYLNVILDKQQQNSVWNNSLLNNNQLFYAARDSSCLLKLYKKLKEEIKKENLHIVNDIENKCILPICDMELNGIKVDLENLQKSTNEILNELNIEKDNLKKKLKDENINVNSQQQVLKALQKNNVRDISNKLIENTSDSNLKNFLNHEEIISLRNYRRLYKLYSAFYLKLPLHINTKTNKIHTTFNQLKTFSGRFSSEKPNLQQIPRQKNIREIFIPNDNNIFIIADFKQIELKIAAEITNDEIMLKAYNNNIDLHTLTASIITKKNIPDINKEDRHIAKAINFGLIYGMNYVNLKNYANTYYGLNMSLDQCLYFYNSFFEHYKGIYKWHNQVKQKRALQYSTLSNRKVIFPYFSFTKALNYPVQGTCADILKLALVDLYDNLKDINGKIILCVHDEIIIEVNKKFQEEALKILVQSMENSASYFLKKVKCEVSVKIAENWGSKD

## Nc1ncnc(NC2CCCCC2)c1[N+](=O)[O-] [KU0193018]
DRC-1; concentration 2.5; 10'
  % inhibition Apo pol 10': -4.033%
DRC-1; concentration 2.5; 90'
  % inhibition Apol 90': 1.71%
DRC-1; concentration 2.5; 180'
  % inhibition apPOL 180': 7.961%
DRC-1; concentration 5; 10'
  % inhibition Apo pol 10': -4.7638%
DRC-1; concentration 5; 90'
  % inhibition Apol 90': 3.18%
DRC-1; concentration 5; 180'
  % inhibition apPOL 180': 11.4393%
DRC-1; concentration 10; 10'
  % inhibition Apo pol 10': 7.571%
DRC-1; concentration 10; 90'
  % inhibition Apol 90': 18.3925%
DRC-1; concentration 10; 180'
  % inhibition apPOL 180': 32.1574%
DRC-1; concentration 20; 10'
  % inhibition Apo pol 10': 20.9545%
DRC-1; concentration 20; 90'
  % inhibition Apol 90': 38.4286%
DRC-1; concentration 20; 180'
  % inhibition apPOL 180': 56.6751%
DRC-1; concentration 40; 10'
  % inhibition Apo pol 10': 53.9116%
DRC-1; concentration 40; 90'
  % inhibition Apol 90': 70.3163%
DRC-1; concentration 40; 180'
  % inhibition apPOL 180': 83.6838%
[1]
  % inhibition Apo pol 10': 70.2616%
DRC-1; concentration 80; 90'
  % inhibition Apol 90': 82.4548%
DRC-1; concentration 80; 180'
  % inhibition apPOL 180': 91.4179%
DRC-2; concentration 2.5; 5'
  % inhibition Apo pol 5': -2.47%
DRC-2; concentration 2.5; 40'
  % inhibition Apol 40': -1.57%
DRC-2; concentration 2.5; 90'
  % inhibition ApPOL 90': -2.42%
DRC-2; concentration 2.5; 180'
  % inhibition apPOL 180': -6.58%
DRC-2; concentration 5; 5'
  % inhibition Apo pol 5': 4%
DRC-2; concentration 5; 40'
  % inhibition Apol 40': 3.32%
DRC-2; concentration 5; 90'
  % inhibition ApPOL 90': 2.51%
DRC-2; concentration 5; 180'
  % inhibition apPOL 180': -3.38%
DRC-2; concentration 10; 5'
  % inhibition Apo pol 5': 20%
DRC-2; concentration 10; 40'
  % inhibition Apol 40': 19%
DRC-2; concentration 10; 90'
  % inhibition ApPOL 90': 15%
DRC-2; concentration 10; 180'
  % inhibition apPOL 180': 6%
DRC-2; concentration 20; 5'
  % inhibition Apo pol 5': 37%
DRC-2; concentration 20; 40'
  % inhibition Apol 40': 42%
DRC-2; concentration 20; 90'
  % inhibition ApPOL 90': 38%
DRC-2; concentration 20; 180'
  % inhibition apPOL 180': 26%
DRC-2; concentration 40; 5'
  % inhibition Apo pol 5': 50%
DRC-2; concentration 40; 40'
  % inhibition Apol 40': 64%
DRC-2; concentration 40; 90'
  % inhibition ApPOL 90': 63%
DRC-2; concentration 40; 180'
  % inhibition apPOL 180': 55%
DRC-2; concentration 80; 5'
  % inhibition Apo pol 5': 52%
DRC-2; concentration 80; 40'
  % inhibition Apol 40': 71%
DRC-2; concentration 80; 90'
  % inhibition ApPOL 90': 72%
DRC-2; concentration 80; 180'
  % inhibition apPOL 180': 69%
[2]
  DNA Pol: 25
[3]
  DNA Pol: 25

## O=c1cc(-c2ccccc2Cl)oc2c(NS(=O)(=O)c3cc(Cl)cc(Cl)c3O)ccc(O)c12 [KU0104277]
DRC-1; 10'; concentration 2.5
  % inhibition Apo pol 10': -4.204%
DRC-1; 10'; concentration 5
  % inhibition Apo pol 10': 6.708%
DRC-1; 10'; concentration 10
  % inhibition Apo pol 10': 7.439%
DRC-1; 10'; concentration 20
  % inhibition Apo pol 10': 27.5333%
DRC-1; 10'; concentration 40
  % inhibition Apo pol 10': 73.9275%
DRC-1; 10'; concentration 80
  % inhibition Apo pol 10': 90.8547%
DRC-1; 90'; concentration 2.5
  % inhibition Apol 90': -8.287%
DRC-1; 90'; concentration 5
  % inhibition Apol 90': 2.039%
DRC-1; 90'; concentration 10
  % inhibition Apol 90': 0.6918%
DRC-1; 90'; concentration 20
  % inhibition Apol 90': 20.1462%
DRC-1; 90'; concentration 40
  % inhibition Apol 90': 69.1951%
DRC-1; 90'; concentration 80
  % inhibition Apol 90': 87.9641%
DRC-1; 180'; concentration 2.5
  % inhibition apPOL 180': -13.4888%
DRC-1; 180'; concentration 5
  % inhibition apPOL 180': -5.423%
DRC-1; 180'; concentration 10
  % inhibition apPOL 180': -7.477%
DRC-1; 180'; concentration 20
  % inhibition apPOL 180': 7.115%
DRC-1; 180'; concentration 40
  % inhibition apPOL 180': 55.1056%
DRC-1; 180'; concentration 80
  % inhibition apPOL 180': 83.6554%
DRC-2; 5'; concentration 2.5
  % inhibition Apo pol 5': -4%
DRC-2; 5'; concentration 5
  % inhibition Apo pol 5': -2.32%
DRC-2; 5'; concentration 10
  % inhibition Apo pol 5': 35%
DRC-2; 5'; concentration 20
  % inhibition Apo pol 5': 11%
DRC-2; 5'; concentration 40
  % inhibition Apo pol 5': 63%
DRC-2; 5'; concentration 80
  % inhibition Apo pol 5': 65%
DRC-2; 40'; concentration 2.5
  % inhibition Apol 40': -1.34%
DRC-2; 40'; concentration 5
  % inhibition Apol 40': -1%
DRC-2; 40'; concentration 10
  % inhibition Apol 40': 42%
DRC-2; 40'; concentration 20
  % inhibition Apol 40': 11%
DRC-2; 40'; concentration 40
  % inhibition Apol 40': 74%
DRC-2; 40'; concentration 80
  % inhibition Apol 40': 75%
DRC-2; 90'; concentration 2.5
  % inhibition ApPOL 90': -1%
DRC-2; 90'; concentration 5
  % inhibition ApPOL 90': 0.948%
DRC-2; 90'; concentration 10
  % inhibition ApPOL 90': 41%
DRC-2; 90'; concentration 20
  % inhibition ApPOL 90': 9%
DRC-2; 90'; concentration 40
  % inhibition ApPOL 90': 75%
DRC-2; 90'; concentration 80
  % inhibition ApPOL 90': 76%
DRC-2; 180'; concentration 2.5
  % inhibition apPOL 180': -2.11%
DRC-2; 180'; concentration 5
  % inhibition apPOL 180': -2.49%
DRC-2; 180'; concentration 10
  % inhibition apPOL 180': 33%
DRC-2; 180'; concentration 20
  % inhibition apPOL 180': 3.69%
DRC-2; 180'; concentration 40
  % inhibition apPOL 180': 72%
DRC-2; 180'; concentration 80
  % inhibition apPOL 180': 73%
conc. 2.5; 90'; DRC-2
  % inhibition ApPOL 90': -1%
conc. 5; 40'; DRC-2
  % inhibition Apol 40': -1%
conc. 20; 5'; DRC-2
  % inhibition Apo pol 5': 11%
conc. 20; 40'; DRC-2
  % inhibition Apol 40': 11%
conc. 40; 90'; DRC-2
  % inhibition ApPOL 90': 75%
conc. 80; 40'; DRC-2
  % inhibition Apol 40': 75%
Primary screen value by plate and well; 90 min, 10 µM
  DNA Pol: 36
[2]
  DNA Pol: 36

## CCCN1COc2ccc3c(=O)c(-c4ccccc4)coc3c2C1 [KU0199556]
DRC-1; concentration 2.5; 10'
  % inhibition Apo pol 10': 3.335%
DRC-1; concentration 2.5; 90'
  % inhibition Apol 90': 6.953%
DRC-1; concentration 2.5; 180'
  % inhibition apPOL 180': 12.8227%
DRC-1; concentration 5; 10'
  % inhibition Apo pol 10': 0.6816%
DRC-1; concentration 5; 90'
  % inhibition Apol 90': 8.234%
DRC-1; concentration 5; 180'
  % inhibition apPOL 180': 17.5775%
DRC-1; concentration 10; 10'
  % inhibition Apo pol 10': 12.2491%
DRC-1; concentration 10; 90'
  % inhibition Apol 90': 22.7546%
DRC-1; concentration 10; 180'
  % inhibition apPOL 180': 37.4083%
DRC-1; concentration 20; 10'
  % inhibition Apo pol 10': 29.2216%
DRC-1; concentration 20; 90'
  % inhibition Apol 90': 42.6091%
DRC-1; concentration 20; 180'
  % inhibition apPOL 180': 58.6511%
DRC-1; concentration 40; 10'
  % inhibition Apo pol 10': 57.482%
DRC-1; concentration 40; 90'
  % inhibition Apol 90': 69.5557%
DRC-1; concentration 40; 180'
  % inhibition apPOL 180': 84.4582%
[1]
  % inhibition Apo pol 10': 71.548%
DRC-1; concentration 80; 90'
  % inhibition Apol 90': 77.7995%
DRC-1; concentration 80; 180'
  % inhibition apPOL 180': 92.1066%
DRC-2; 5'; concentration 80
  % inhibition Apo pol 5': 51%
DRC-2; 40'; concentration 80
  % inhibition Apol 40': 51%
DRC-2; 90'; concentration 20
  % inhibition ApPOL 90': 39%
DRC-2; 90'; concentration 40
  % inhibition ApPOL 90': 51%
DRC-2; 180'; concentration 80
  % inhibition apPOL 180': 39%
DRC-2; concentration 2.5; 5'
  % inhibition Apo pol 5': 7.48%
DRC-2; concentration 2.5; 40'
  % inhibition Apol 40': 5%
DRC-2; concentration 2.5; 90'
  % inhibition ApPOL 90': 3.57%
DRC-2; concentration 2.5; 180'
  % inhibition apPOL 180': -2.43%
DRC-2; concentration 5; 5'
  % inhibition Apo pol 5': 10%
DRC-2; concentration 5; 40'
  % inhibition Apol 40': 0.118%
DRC-2; concentration 5; 90'
  % inhibition ApPOL 90': -8%
DRC-2; concentration 5; 180'
  % inhibition apPOL 180': -84%
DRC-2; concentration 10; 5'
  % inhibition Apo pol 5': 25%
DRC-2; concentration 10; 40'
  % inhibition Apol 40': 23%
DRC-2; concentration 10; 90'
  % inhibition ApPOL 90': 20%
DRC-2; concentration 10; 180'
  % inhibition apPOL 180': 6.45%
DRC-2; concentration 20; 5'
  % inhibition Apo pol 5': 41%
DRC-2; concentration 20; 40'
  % inhibition Apol 40': 42%
DRC-2; concentration 20; 90'
  % inhibition ApPOL 90': 39%
DRC-2; concentration 20; 180'
  % inhibition apPOL 180': 22%
DRC-2; concentration 40; 5'
  % inhibition Apo pol 5': 52%
DRC-2; concentration 40; 40'
  % inhibition Apol 40': 55%
DRC-2; concentration 40; 90'
  % inhibition ApPOL 90': 51%
DRC-2; concentration 40; 180'
  % inhibition apPOL 180': 38%
DRC-2; concentration 80; 5'
  % inhibition Apo pol 5': 51%
DRC-2; concentration 80; 40'
  % inhibition Apol 40': 51%
DRC-2; concentration 80; 90'
  % inhibition ApPOL 90': 48%
DRC-2; concentration 80; 180'
  % inhibition apPOL 180': 39%
[2]
  DNA Pol: 28
[3]
  DNA Pol: 28
